{
  "source": "patent US12186290B2",
  "about": "“Methods for the treatment of glioblastoma multiforme” (priority 2017, dated 2025)",
  "experiment": "solubility in water",
  "type": "physicochemical",
  "data": [
    {"smiles": "NC(=O)C(CCC(=O)[O-])NC(=O)Cc1ccccc1.[Na+]", "note": "(stereo not shown) [Iso-PG, phenylacetylisoglutaminate sodium]", "values": [
      {"measurement": "solubility in water", "result": "soluble in water"}
    ]}
  ]
}
